Results from ChEMBL document CHEMBL1201862, “PubChem BioAssay data set” (2004).
Active and inactive are the calls of the source.

What was measured:
Protein RecA = biological target: T1, Protein RecA (Mycobacterium tuberculosis, UniProt P9WHJ3); experiment: Fluorescence Cell-Free Homogeneous Dose Retest to Identify Inhibitors of RecA-Intein Splicing Activity. [Related pubchem assays (depositor defined):AID2097, AID2223, AID489010, AID492950]; type: functional
T1 sequence (P9WHJ3 whole entry): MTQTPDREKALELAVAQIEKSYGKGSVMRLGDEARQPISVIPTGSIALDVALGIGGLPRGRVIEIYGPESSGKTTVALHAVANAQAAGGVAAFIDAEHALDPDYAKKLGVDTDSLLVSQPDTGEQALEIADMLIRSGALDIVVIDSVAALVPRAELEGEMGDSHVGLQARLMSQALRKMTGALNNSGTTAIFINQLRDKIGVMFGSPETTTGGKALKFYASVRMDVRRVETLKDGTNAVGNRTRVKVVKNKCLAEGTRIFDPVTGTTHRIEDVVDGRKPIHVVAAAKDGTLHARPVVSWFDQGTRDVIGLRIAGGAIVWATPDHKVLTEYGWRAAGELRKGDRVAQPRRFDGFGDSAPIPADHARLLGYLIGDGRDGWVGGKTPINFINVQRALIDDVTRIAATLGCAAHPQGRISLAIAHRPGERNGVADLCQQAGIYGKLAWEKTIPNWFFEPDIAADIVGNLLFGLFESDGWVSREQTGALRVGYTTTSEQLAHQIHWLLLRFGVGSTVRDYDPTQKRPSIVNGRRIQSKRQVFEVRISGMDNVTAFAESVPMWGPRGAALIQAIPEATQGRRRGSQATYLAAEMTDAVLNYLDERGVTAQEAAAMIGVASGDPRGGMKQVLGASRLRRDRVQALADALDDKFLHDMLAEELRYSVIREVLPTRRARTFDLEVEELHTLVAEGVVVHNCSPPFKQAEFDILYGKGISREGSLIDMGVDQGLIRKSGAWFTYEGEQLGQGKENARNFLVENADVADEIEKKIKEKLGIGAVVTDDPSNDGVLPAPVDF

Streptokinase A = biological target: T2, Streptokinase A (Streptococcus pyogenes serotype M1, UniProt P10520); experiment: viability-normalized secreted streptokinase activity reduction – plasminogen activation absorbance, OD405, dose response (AID 1914); type: functional, Streptococcus pyogenes M1 GAS;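 further: secreted streptokinase activity via plasminogen activation per viability signal from cell pellet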
T2 sequence (P10520 whole entry): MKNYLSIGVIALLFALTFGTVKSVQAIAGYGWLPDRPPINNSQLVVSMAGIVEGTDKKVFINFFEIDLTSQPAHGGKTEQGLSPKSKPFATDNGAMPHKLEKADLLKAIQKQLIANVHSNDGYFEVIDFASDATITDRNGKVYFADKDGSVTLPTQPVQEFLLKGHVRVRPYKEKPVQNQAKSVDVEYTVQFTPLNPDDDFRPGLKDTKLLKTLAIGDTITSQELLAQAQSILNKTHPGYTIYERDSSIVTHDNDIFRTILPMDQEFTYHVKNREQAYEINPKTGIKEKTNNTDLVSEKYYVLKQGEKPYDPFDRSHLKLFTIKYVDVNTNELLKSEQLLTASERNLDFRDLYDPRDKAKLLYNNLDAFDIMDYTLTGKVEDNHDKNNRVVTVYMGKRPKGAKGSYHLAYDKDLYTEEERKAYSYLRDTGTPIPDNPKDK

[1] = biological target: Macrophage-stimulating protein receptor (Homo sapiens, UniProt Q04912); experiment: Navigating the Kinome. Panel member name: MST1R; type: functional
[2] = biological target: Proto-oncogene tyrosine-protein kinase receptor Ret (Homo sapiens, UniProt P07949); type: functional;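 further: measured within a kinome-wide profiling panel, RET as the panel member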
Sequence of Proto-oncogene tyrosine-protein kinase receptor Ret (P07949 whole entry): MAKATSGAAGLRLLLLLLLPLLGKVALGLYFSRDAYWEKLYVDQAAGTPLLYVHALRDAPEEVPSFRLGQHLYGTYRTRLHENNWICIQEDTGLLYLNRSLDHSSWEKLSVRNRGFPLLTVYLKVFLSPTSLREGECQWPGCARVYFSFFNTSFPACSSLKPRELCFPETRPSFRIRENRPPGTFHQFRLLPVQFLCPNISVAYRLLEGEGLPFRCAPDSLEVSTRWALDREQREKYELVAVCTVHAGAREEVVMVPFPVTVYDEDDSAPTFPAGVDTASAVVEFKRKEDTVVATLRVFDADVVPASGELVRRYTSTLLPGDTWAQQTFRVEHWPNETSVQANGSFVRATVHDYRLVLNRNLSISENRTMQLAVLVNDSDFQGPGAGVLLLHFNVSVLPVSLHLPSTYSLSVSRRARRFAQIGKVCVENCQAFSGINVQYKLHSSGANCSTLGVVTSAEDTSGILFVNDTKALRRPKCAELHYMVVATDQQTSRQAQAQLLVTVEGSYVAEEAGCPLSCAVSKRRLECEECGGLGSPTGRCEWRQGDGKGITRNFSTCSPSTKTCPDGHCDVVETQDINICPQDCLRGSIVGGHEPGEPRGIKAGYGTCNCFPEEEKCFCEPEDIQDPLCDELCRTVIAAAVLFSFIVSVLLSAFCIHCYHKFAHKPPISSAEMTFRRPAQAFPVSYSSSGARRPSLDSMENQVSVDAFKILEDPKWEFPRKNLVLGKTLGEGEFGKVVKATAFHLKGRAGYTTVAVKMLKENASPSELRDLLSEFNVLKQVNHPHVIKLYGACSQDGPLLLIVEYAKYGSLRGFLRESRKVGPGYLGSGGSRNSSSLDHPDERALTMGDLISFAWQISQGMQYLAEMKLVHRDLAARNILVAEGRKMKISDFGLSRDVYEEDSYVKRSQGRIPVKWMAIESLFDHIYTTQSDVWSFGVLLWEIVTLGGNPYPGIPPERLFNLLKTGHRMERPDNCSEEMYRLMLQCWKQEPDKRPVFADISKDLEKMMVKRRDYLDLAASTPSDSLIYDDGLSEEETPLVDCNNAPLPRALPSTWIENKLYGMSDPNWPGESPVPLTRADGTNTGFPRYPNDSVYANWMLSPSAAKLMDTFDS

[3] = biological target: T3, Serine/threonine-protein kinase D3 (Homo sapiens, UniProt O94806); type: functional;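 further: determined within a kinase panel screen, with PRKCN as the panel member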
T3 sequence (O94806 whole entry): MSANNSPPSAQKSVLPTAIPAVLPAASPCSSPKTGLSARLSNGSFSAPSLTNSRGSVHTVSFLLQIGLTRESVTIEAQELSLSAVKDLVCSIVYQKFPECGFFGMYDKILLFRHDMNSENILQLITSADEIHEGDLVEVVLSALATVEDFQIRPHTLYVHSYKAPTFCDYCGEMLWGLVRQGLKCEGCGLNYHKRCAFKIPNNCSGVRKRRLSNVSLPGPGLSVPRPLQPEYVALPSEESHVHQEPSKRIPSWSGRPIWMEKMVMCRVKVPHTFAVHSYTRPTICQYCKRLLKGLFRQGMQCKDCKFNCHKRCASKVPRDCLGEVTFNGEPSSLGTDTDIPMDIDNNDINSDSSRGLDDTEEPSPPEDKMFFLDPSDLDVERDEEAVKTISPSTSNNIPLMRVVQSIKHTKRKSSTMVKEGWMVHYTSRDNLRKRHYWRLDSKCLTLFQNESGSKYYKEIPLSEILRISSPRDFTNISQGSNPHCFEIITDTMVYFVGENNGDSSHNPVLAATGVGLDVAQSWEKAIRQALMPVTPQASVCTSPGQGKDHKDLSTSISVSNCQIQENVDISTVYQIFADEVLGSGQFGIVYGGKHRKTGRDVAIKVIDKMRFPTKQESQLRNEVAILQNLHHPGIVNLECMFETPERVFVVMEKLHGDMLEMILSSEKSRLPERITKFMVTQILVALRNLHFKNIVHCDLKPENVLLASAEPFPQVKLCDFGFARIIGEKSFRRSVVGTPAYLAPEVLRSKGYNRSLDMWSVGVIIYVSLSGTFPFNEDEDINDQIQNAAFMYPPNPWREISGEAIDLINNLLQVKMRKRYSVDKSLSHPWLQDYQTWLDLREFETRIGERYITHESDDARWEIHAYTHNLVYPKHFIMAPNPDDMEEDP

[4] = biological target: Protein kinase C theta type (Homo sapiens, UniProt Q04759); experiment: Navigating the Kinome. Panel member name: PRKCQ; type: functional
Aurora kinase B = Aurora kinase B (Homo sapiens, UniProt Q96GD4); type: functional
Sequence of Aurora kinase B (Q96GD4 whole entry): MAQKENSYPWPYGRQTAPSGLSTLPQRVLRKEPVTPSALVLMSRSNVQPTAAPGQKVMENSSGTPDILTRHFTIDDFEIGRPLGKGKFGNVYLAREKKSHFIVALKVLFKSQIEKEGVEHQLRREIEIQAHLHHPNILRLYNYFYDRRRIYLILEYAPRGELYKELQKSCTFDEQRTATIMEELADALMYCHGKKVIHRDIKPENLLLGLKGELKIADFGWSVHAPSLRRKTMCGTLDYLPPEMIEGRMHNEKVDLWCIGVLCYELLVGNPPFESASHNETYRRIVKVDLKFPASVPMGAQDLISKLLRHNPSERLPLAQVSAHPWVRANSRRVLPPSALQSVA

[5] = biological target: Vascular endothelial growth factor receptor 1 (Homo sapiens, UniProt P17948); type: functional;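 further: measured within a kinome-wide profiling panel, FLT1 as the panel member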
[6] = biological target: Serine/threonine-protein kinase PAK 4 (Homo sapiens, UniProt O96013); type: functional;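 further: value obtained within a kinome profiling panel in which PAK4 was one of the panel members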
[7] = biological target: Cyclin-dependent kinase 8 (Homo sapiens, UniProt P49336); experiment: Navigating the Kinome. Panel member name: CDK8; type: functional
[8] = biological target: Mitogen-activated protein kinase 14 (Homo sapiens, UniProt Q16539); type: functional;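 further: part of a kinome-wide panel, MAPK14 entry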
Sequence of Mitogen-activated protein kinase 14 (Q16539 whole entry): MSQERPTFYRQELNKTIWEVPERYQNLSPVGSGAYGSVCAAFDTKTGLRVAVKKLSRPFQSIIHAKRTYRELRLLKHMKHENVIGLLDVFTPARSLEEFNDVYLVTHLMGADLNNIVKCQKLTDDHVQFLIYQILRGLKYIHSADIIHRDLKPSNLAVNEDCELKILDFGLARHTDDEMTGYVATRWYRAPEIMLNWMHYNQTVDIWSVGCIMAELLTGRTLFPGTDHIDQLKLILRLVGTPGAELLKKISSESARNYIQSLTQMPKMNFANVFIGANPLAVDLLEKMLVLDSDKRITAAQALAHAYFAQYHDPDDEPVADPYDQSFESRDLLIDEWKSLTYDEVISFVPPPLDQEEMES

[9] = biological target: Tyrosine-protein kinase ABL1 (Homo sapiens, UniProt P00519); type: functional
Sequence of Tyrosine-protein kinase ABL1 (P00519 whole entry): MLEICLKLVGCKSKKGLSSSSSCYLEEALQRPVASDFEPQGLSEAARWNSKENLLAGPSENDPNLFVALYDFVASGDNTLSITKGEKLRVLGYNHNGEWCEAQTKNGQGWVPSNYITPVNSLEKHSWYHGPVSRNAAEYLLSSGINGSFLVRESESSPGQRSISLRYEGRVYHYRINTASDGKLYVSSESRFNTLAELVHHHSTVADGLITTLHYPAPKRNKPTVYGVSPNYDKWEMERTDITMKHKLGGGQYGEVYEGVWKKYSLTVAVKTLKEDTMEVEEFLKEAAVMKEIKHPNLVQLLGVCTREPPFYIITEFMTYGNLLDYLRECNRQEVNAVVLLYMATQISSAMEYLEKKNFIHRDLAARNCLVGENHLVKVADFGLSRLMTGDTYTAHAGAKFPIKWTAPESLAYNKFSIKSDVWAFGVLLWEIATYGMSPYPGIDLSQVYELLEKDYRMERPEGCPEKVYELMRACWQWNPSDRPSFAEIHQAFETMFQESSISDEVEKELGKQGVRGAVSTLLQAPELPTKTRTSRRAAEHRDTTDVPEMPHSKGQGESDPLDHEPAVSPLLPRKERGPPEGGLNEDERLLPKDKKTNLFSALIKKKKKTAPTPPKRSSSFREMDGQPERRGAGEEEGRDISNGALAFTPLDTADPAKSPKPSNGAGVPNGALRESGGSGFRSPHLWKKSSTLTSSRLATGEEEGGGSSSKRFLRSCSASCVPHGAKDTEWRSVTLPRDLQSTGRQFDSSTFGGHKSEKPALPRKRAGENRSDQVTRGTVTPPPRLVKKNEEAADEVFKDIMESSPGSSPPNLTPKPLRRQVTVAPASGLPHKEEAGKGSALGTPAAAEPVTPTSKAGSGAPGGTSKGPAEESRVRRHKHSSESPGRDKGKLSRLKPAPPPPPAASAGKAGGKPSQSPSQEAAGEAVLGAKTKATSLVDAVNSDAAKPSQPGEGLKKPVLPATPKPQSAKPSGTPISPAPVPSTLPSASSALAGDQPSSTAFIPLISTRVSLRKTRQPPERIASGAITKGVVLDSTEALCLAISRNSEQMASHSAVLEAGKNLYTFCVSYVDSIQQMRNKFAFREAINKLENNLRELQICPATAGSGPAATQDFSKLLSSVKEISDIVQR

[10] = biological target: Dual specificity protein kinase CLK4 (Homo sapiens, UniProt Q9HAZ1); type: functional
Sequence of Dual specificity protein kinase CLK4 (Q9HAZ1 whole entry): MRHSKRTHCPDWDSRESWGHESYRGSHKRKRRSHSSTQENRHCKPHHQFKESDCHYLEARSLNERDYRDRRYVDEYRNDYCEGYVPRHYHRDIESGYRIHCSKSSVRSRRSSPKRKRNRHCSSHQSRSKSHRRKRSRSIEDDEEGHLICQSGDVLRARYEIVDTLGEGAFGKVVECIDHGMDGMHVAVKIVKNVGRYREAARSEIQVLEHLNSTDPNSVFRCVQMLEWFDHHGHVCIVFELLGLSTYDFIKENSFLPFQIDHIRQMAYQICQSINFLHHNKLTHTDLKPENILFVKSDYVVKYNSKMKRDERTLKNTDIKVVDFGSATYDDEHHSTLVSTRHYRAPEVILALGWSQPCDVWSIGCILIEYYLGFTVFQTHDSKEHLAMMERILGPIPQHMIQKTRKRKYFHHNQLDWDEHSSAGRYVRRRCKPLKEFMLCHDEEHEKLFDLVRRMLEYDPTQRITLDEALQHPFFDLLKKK

[11] = biological target: Platelet-derived growth factor receptor alpha (Homo sapiens, UniProt P16234); experiment: Navigating the Kinome. Panel member name: PDGFRA; type: functional
Sequence of Platelet-derived growth factor receptor alpha (P16234 whole entry): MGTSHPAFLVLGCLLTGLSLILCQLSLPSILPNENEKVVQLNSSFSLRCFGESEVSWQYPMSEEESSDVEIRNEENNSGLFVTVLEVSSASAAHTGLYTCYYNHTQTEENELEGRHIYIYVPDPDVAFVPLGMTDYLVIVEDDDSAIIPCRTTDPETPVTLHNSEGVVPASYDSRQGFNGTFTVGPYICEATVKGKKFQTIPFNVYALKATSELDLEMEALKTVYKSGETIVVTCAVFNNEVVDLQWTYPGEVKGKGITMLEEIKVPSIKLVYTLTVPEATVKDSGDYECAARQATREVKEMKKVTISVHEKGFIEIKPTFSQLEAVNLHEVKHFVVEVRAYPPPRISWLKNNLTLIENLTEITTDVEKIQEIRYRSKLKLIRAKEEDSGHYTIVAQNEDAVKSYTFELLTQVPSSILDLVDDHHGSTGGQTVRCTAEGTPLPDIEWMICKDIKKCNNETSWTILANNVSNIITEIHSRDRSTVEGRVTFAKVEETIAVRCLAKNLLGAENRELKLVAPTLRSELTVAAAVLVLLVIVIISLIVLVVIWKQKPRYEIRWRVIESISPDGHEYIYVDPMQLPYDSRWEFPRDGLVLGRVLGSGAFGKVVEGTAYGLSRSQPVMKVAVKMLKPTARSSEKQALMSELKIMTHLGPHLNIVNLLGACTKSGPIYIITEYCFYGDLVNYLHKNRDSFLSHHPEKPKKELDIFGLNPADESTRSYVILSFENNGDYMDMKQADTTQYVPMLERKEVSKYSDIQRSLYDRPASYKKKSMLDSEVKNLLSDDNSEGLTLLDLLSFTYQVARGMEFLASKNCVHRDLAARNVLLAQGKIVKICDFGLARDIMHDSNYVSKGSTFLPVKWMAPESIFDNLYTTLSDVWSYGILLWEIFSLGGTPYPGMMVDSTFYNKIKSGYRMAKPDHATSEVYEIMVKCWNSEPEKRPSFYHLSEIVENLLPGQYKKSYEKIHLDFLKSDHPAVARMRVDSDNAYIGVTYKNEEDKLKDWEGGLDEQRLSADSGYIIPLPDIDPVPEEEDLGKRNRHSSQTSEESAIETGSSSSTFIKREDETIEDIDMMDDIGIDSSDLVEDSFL

[12] = biological target: Glycogen synthase kinase-3 beta (Homo sapiens, UniProt P49841); type: functional;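 further: value comes from a broad kinome profiling panel, with GSK3B as the panel member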
Sequence of Glycogen synthase kinase-3 beta (P49841 whole entry): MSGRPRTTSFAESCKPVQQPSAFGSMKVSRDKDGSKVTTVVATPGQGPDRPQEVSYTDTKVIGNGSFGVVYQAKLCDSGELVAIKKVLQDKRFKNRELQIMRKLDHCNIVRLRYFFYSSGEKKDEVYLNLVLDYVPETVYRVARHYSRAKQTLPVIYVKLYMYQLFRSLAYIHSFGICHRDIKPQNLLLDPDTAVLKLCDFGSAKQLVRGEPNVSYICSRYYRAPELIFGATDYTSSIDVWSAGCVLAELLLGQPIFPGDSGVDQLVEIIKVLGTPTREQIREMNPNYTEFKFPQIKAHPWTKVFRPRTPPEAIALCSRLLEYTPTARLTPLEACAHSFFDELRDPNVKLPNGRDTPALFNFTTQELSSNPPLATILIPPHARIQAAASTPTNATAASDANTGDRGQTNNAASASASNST

SMILES | EC50 (Protein RecA) | EC50 (Streptokinase A) | Ki [1] | Ki [2] | Ki [3] | Ki [4] | Ki (Aurora kinase B) | Ki [5] | Ki [6] | Ki [7] | Ki [8] | Ki [9] | Ki [10] | Ki [11] | Ki [12] | further results
CCOC(=O)c1ccc(NC2=CC(=O)C(=O)c3ccccc32)cc1 | 3.24 µM (active) | 9.93 µM (active) | – | – | – | – | – | – | – | – | – | – | – | – | – | –
OC(CNCCC1C=Nc2ccccc21)Cn1c2ccc(Cl)cc2c2cc(Cl)ccc21 (centres undefined) | 9.52 µM (active) | – | – | – | – | – | – | – | – | – | – | – | – | – | – | –
CCCCCCCCCCCCCCCC[N+](C)(C)C | 14.7 µM (active) | 19.6 µM (active) | – | – | – | – | – | – | – | – | – | – | – | – | – | –
NC1CCC(Nc2nc(Cl)cc(-c3c[nH]c4ncccc34)n2)CC1 (centres undefined) | – | – | 0.0631 µM (active) | 2 µM (active) | 0.00501 µM (active) | 0.000794 µM (active) | 0.251 µM (active) | > 3.98 µM (inactive) | 0.0398 µM (active) | 0.00501 µM (active) | 2 µM (active) | 1.58 µM (active) | 0.001 µM (active) | 1.26 µM (active) | 0.398 µM (active) | pKi [1]: 7.2; pKi [2]: 5.7; pKi [3]: 8.3; pKi [4]: 9.1; pKi (Aurora kinase B): 6.6; pKi [6]: 7.4; pKi [7]: 8.3; pKi [8]: 5.7; pKi [9]: 5.8; pKi [10]: 9; pKi [11]: 5.9; pKi [12]: 6.4
O=C(O)C1CN(Cc2ccc(OCc3ccccc3)cc2Cl)C1 | – | – | > 3.98 µM (inactive) | > 3.16 µM (inactive) | > 3.98 µM (inactive) | > 2.51 µM (inactive) | > 3.98 µM (inactive) | > 3.98 µM (inactive) | > 5.01 µM (inactive) | > 3.98 µM (inactive) | > 3.98 µM (inactive) | > 2.51 µM (inactive) | > 2.51 µM (inactive) | > 2.51 µM (inactive) | > 3.98 µM (inactive) | –
Cc1ccccc1-c1cc2c(nn1)-c1ccccc1C2=O | 0.891 µM (active) | – | – | – | – | – | – | – | – | – | – | – | – | – | – | –
